Measurements reported in PubChem BioAssay (NCI).
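The compound was tested at five concentrations on cells cultured in 96-well plates, with a 48-hour exposure period. TGI: total growth inhibition.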

How the values were obtained:
Assay in all cases: growth of human tumour cells (NCI), 48 h
[1] = system: 786-0 renal
[2] = system: A498 renal
[3] = system: ACHN renal
[4] = system: BT-549 breast
[5] = system: CAKI-1 renal
[6] = system: COLO 205 colon
[7] = system: DU-145 prostate
[8] = system: EKVX NSCLC
[9] = system: HCC-2998 colon
[10] = system: HCT-116 colon
[11] = system: HCT-15 colon
[12] = system: HL-60(TB) leukemia
[13] = system: HOP-62 NSCLC
[14] = system: HS 578T breast
[15] = system: HT29 colon
[16] = system: IGROV1 ovarian
[17] = system: K-562 leukemia
[18] = system: KM12 colon
[19] = system: LOX IMVI melanoma
[20] = system: MALME-3M melanoma
[21] = system: MCF7 breast
[22] = system: MDA-MB-231 breast
[23] = system: MDA-MB-435
[24] = system: MDA-N
[25] = system: MOLT-4 leukemia
[26] = system: NCI-H226 lung
[27] = system: NCI-H23 lung
[28] = system: NCI-H460 lung
[29] = system: NCI-H522 lung
[30] = system: NCI/ADR-RES ovarian
[31] = system: OVCAR-3 ovarian
[32] = system: OVCAR-4 ovarian
[33] = system: OVCAR-5 ovarian
[34] = system: OVCAR-8 ovarian
[35] = system: PC-3 prostate
[36] = system: RPMI-8226 leukemia
[37] = system: RXF 393 renal
[38] = system: SF-268 CNS
[39] = system: SF-295 CNS
[40] = system: SK-MEL-2 melanoma
[41] = system: SK-MEL-28 melanoma
[42] = system: SK-MEL-5 melanoma
[43] = system: SN12C renal
[44] = system: SNB-19 CNS
[45] = system: SNB-75 CNS
[46] = system: SR leukemia
[47] = system: SW-620 colon
[48] = system: T-47D breast
[49] = system: TK-10 renal
[50] = system: U251 CNS
[51] = system: UACC-257 melanoma
[52] = system: UACC-62 melanoma
[53] = system: UO-31 renal
[54] = system: A549 NSCLC
[55] = system: CCRF-CEM leukemia
[56] = system: HOP-92 NSCLC
[57] = system: M14 melanoma
[58] = system: SF-539 CNS
[59] = system: SK-OV-3 ovarian

For `Cn1c2nc(=Nc3ccc(Cl)cc3)n3ccc4ccccc4c3c2c(=O)n1-c1ccccc1`, the TGI [1] was > 100 µM, the TGI [2] was > 100 µM and the TGI [3] was > 100 µM. The TGI [4] was > 100 µM, the TGI [5] was > 100 µM and the TGI [6] was > 100 µM. For the same molecule, the TGI [7] was > 100 µM, the TGI [8] was > 100 µM and the TGI [9] was > 100 µM. For the same molecule, the TGI [10] was > 100 µM, the TGI [11] was > 100 µM and the TGI [12] was > 100 µM. For the same molecule, the TGI [13] was > 100 µM, the TGI [14] was > 100 µM and the TGI [15] was > 100 µM. For the same molecule, the TGI [16] was > 100 µM, the TGI [17] was > 100 µM and the TGI [18] was > 100 µM. The TGI [19] was > 100 µM, the TGI [20] was > 100 µM and the TGI [21] was > 100 µM. For the same molecule, the TGI [22] was > 100 µM, the TGI [23] was > 100 µM and the TGI [24] was > 100 µM. For the same molecule, the TGI [25] was > 100 µM, the TGI [26] was > 100 µM and the TGI [27] was > 100 µM. The TGI [28] was > 100 µM, the TGI [29] was > 100 µM and the TGI [30] was > 100 µM. For the same molecule, the TGI [31] was > 100 µM, the TGI [32] was > 100 µM and the TGI [33] was > 100 µM. The TGI [34] was > 100 µM, the TGI [35] was > 100 µM and the TGI [36] was > 100 µM. For the same molecule, the TGI [37] was > 100 µM, the TGI [38] was > 100 µM and the TGI [39] was > 100 µM. The TGI [40] was > 100 µM, the TGI [41] was > 100 µM and the TGI [42] was > 100 µM. For the same molecule, the TGI [43] was > 100 µM, the TGI [44] was > 100 µM and the TGI [45] was > 100 µM. The TGI [46] was > 100 µM, the TGI [47] was > 100 µM and the TGI [48] was > 100 µM. For the same molecule, the TGI [49] was > 100 µM, the TGI [50] was > 100 µM and the TGI [51] was > 100 µM. The TGI [52] was > 100 µM and the TGI [53] was > 100 µM.

In the case of `O=C1c2ccccc2C(=O)c2[nH]c(=O)c(/C=N/Nc3ccc([N+](=O)[O-])cc3)nc21`, the TGI [1] is reported as > 62.2 µM, the TGI [2] is reported as 14.2 µM and the TGI [54] is reported as > 100 µM. The TGI [3] was 45.4 µM, the TGI [4] was 20.4 µM and the TGI [5] was > 75.2 µM. For the same molecule, the TGI [55] was > 100 µM, the TGI [6] was 75.6 µM and the TGI [7] was 2.88 µM. For the same molecule, the TGI [8] was > 73 µM, the TGI [9] was 4.78 µM and the TGI [10] was > 73.1 µM. For the same molecule, the TGI [11] was > 38.8 µM, the TGI [13] was > 21.3 µM and the TGI [56] was 38 µM. The TGI [14] was 21.1 µM, the TGI [15] was > 21.5 µM and the TGI [16] was > 48.8 µM. For the same molecule, the TGI [17] was > 65.4 µM, the TGI [18] was > 100 µM and the TGI [19] was > 39.2 µM. The TGI [57] was 5.01 µM, the TGI [20] was 2.78 µM and the TGI [21] was > 44 µM. For the same molecule, the TGI [22] was > 51.6 µM, the TGI [23] was 3.99 µM and the TGI [24] was 2.63 µM. The TGI [25] was > 78.6 µM, the TGI [26] was 4.45 µM and the TGI [27] was 3.79 µM. The TGI [28] was 4.18 µM, the TGI [29] was 13 µM and the TGI [30] was > 61.6 µM. For the same molecule, the TGI [31] was > 25.3 µM, the TGI [32] was > 75.5 µM and the TGI [33] was > 76.5 µM. The TGI [34] was > 50.7 µM, the TGI [35] was > 57.9 µM and the TGI [36] was > 61.2 µM. It also gave a TGI [37] of 33.4 µM, a TGI [38] of 29.6 µM and a TGI [39] of 12.4 µM. The TGI [58] was 19.2 µM, the TGI [40] was 12.1 µM and the TGI [41] was > 30.5 µM. For the same molecule, the TGI [42] was 2.82 µM, the TGI [59] was > 47.3 µM and the TGI [43] was 37.2 µM. For the same molecule, the TGI [44] was > 100 µM, the TGI [46] was > 65.2 µM and the TGI [47] was > 45.4 µM. The TGI [48] was > 95 µM, the TGI [49] was 51.2 µM and the TGI [50] was > 37.6 µM. The TGI [51] was 5.88 µM, the TGI [52] was 4.16 µM and the TGI [53] was > 48 µM.

`O=C(Nc1ccccc1)N1CC(CN2CCN(c3ccccc3)CC2)OC1=O` (stereo unspecified) was tested, and the TGI [1] was > 100 µM, the TGI [2] was > 100 µM and the TGI [54] was > 100 µM. For the same molecule, the TGI [3] was > 100 µM, the TGI [4] was > 100 µM and the TGI [5] was > 100 µM. The TGI [55] was > 100 µM, the TGI [6] was > 100 µM and the TGI [7] was > 100 µM. For the same molecule, the TGI [8] was > 100 µM, the TGI [9] was > 100 µM and the TGI [10] was > 100 µM. The TGI [11] was > 100 µM, the TGI [12] was > 100 µM and the TGI [13] was > 100 µM. The TGI [56] was > 100 µM, the TGI [14] was > 100 µM and the TGI [15] was > 100 µM. For the same molecule, the TGI [16] was > 100 µM, the TGI [17] was > 100 µM and the TGI [18] was > 100 µM. The TGI [19] was > 100 µM, the TGI [57] was > 100 µM and the TGI [20] was > 100 µM. For the same molecule, the TGI [21] was > 100 µM, the TGI [22] was > 100 µM and the TGI [23] was > 100 µM. For the same molecule, the TGI [24] was > 100 µM, the TGI [25] was > 100 µM and the TGI [26] was > 100 µM. The TGI [27] was > 100 µM, the TGI [28] was > 100 µM and the TGI [29] was > 100 µM. For the same molecule, the TGI [30] was > 100 µM, the TGI [32] was > 100 µM and the TGI [33] was > 100 µM. For the same molecule, the TGI [35] was > 100 µM, the TGI [36] was > 100 µM and the TGI [37] was > 100 µM. The TGI [38] was > 100 µM, the TGI [39] was > 100 µM and the TGI [40] was > 100 µM. For the same molecule, the TGI [41] was > 100 µM, the TGI [42] was > 100 µM and the TGI [59] was > 100 µM. For the same molecule, the TGI [43] was > 100 µM, the TGI [44] was > 100 µM and the TGI [46] was > 100 µM. For the same molecule, the TGI [47] was > 100 µM, the TGI [48] was > 100 µM and the TGI [49] was > 100 µM. For the same molecule, the TGI [50] was > 100 µM, the TGI [51] was > 100 µM and the TGI [52] was > 100 µM. For the same molecule, the TGI [53] was > 100 µM.

For `Cc1nnc2nc(-c3ccc(Cl)cc3Cl)cc(-c3ccc(Cl)cc3)n12`, the TGI [1] was > 100 µM, the TGI [54] was > 100 µM and the TGI [3] was > 100 µM. The TGI [4] was > 100 µM, the TGI [5] was > 100 µM and the TGI [55] was > 100 µM. The TGI [6] was 49.6 µM, the TGI [7] was > 100 µM and the TGI [10] was > 100 µM. The TGI [11] was > 100 µM, the TGI [12] was > 100 µM and the TGI [13] was > 100 µM. For the same molecule, the TGI [56] was 37.7 µM, the TGI [14] was > 100 µM and the TGI [15] was 42.3 µM. For the same molecule, the TGI [17] was > 100 µM, the TGI [18] was > 100 µM and the TGI [19] was > 100 µM. For the same molecule, the TGI [57] was > 100 µM, the TGI [20] was > 100 µM and the TGI [21] was > 100 µM. The TGI [22] was > 100 µM, the TGI [23] was > 100 µM and the TGI [24] was > 100 µM. The TGI [25] was 96 µM, the TGI [26] was > 100 µM and the TGI [27] was > 100 µM. For the same molecule, the TGI [28] was > 100 µM, the TGI [30] was > 100 µM and the TGI [31] was > 100 µM. The TGI [32] was 39.6 µM, the TGI [33] was > 100 µM and the TGI [34] was > 100 µM. The TGI [35] was > 100 µM, the TGI [36] was > 100 µM and the TGI [38] was > 100 µM. The TGI [39] was > 100 µM, the TGI [58] was > 100 µM and the TGI [41] was 40.8 µM. The TGI [42] was > 100 µM, the TGI [59] was > 100 µM and the TGI [43] was > 100 µM. The TGI [44] was > 100 µM, the TGI [46] was > 100 µM and the TGI [47] was > 100 µM. For the same molecule, the TGI [48] was > 100 µM, the TGI [49] was > 100 µM and the TGI [50] was > 100 µM. The TGI [51] was > 100 µM, the TGI [52] was > 100 µM and the TGI [53] was > 100 µM.
